Measured values published in PMC10039877 (Scientific Reports, 2023).
Where “and” joins values, the source holds several entries; their conditions need not be identical. Equal entries are not always repeated.

Molecular target: T1, BChE (Equus caballus, UniProt P81908)
Assay: Enzyme kinetics study (Lineweaver-Burk plots) of 8c on BChE
Format: biochemical
Settings: BTCI substrate 0.05 to 0.8 mM, Lineweaver-Burk
Description: The inhibition type was determined by analyzing the Lineweaver–Burk plots.
All common chemicals were purchased from commercial sources and used without further purification. The water used was distilled water. Reaction progress was monitored using analytical thin layer chromatography (TLC, detected by UV light 254 nm) on precoated silica gel HSGF254 plates (Qingdao Haiyang Chemical Plant, China). Column chromatography was performed on silica gel (200 ~ 300 mesh; Qingdao Dingkang Chemical Inc.). […] Proton coupling patterns are described as singlet (s), doublet (d), double doublet (dd), triplet (t), and multiplet (m). ESI–MS date were recorded on a Waters Quattro Premier XE triquadrupole mass spectrometer (Waters Corporation, USA), while ESI-HRMS date were recorded on a Q-TOF Priemier mass spectrometer (Micromass, Manchester, UK). The enzyme kinetic assay was performed on an EnSpire Enzyme Marker (Thermos Fisher, USA).
Kinetic studies were performed in same method as described in BChE inhibition assays. The substrate (BTCI) at five concentrations (from 0.05 to 0.8 mM) was determined for 8c at different […] to reveal its inhibition model, and reciprocal plots of 1/V versus 1/[S]. The kinetic parameters and apparent inhibition constants were calculated by the “Enzyme kinetics” module of Prism.

T1 sequence (P81908 whole entry): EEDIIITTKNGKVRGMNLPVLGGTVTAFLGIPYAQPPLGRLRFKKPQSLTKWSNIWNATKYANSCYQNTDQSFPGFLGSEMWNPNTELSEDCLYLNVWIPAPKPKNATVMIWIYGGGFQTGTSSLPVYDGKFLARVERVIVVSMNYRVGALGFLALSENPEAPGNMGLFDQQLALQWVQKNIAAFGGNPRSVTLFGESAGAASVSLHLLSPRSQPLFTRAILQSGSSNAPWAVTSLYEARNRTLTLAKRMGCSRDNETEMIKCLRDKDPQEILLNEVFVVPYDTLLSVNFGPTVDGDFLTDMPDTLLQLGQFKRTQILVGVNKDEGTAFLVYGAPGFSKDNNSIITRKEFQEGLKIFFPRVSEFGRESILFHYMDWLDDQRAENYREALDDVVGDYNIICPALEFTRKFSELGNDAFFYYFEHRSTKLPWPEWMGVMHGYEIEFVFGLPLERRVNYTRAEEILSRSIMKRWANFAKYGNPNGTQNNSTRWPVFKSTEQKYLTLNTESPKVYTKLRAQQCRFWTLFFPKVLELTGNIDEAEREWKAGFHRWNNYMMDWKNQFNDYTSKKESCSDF

| SMILES | Ki [µM] | Vmax |
| --- | --- | --- |
| Cc1cc(C)c(NC(=O)CN(C)C(=O)C(=O)c2c[nH]c3ccccc23)c(C)c1 [8c, 2-(1H-indol-3-yl)-N-(2-(mesitylamino)-2-oxoethyl)-N-methyl-2-oxoacetamide] | 3.27 | 105.26 |

Same assay, conditions: Lineweaver-Burk plot

| SMILES | inhibition type |
| --- | --- |
| Cc1cc(C)c(NC(=O)CN(C)C(=O)C(=O)c2c[nH]c3ccccc23)c(C)c1 [8c, 2-(1H-indol-3-yl)-N-(2-(mesitylamino)-2-oxoethyl)-N-methyl-2-oxoacetamide] | mixed-type |

Molecular target: T1, BChE
Assay: biochemical
Format: biochemical
Settings: BChE: IC50 (μM) ± SEM, in vitro, triplicates

| SMILES | IC50 [µM] |
| --- | --- |
| Cc1cccc(NC(=O)OCCN(C)C(=O)C(=O)c2c[nH]c3ccccc23)c1 [17a, 2-(2-(1H-indol-3-yl)-N-methyl-2-oxoacetamido)ethyl m-tolylcarbamate] | > 50 |
| CCc1ccc(NC(=O)OCCN(C)C(=O)C(=O)c2c[nH]c3ccccc23)cc1 [17b, 2-(2-(1H-indol-3-yl)-N-methyl-2-oxoacetamido)ethyl (4-ethylphenyl)carbamate] | > 50 |
| Cc1ccccc1NC(=O)OCCN(C)C(=O)C(=O)c1c[nH]c2ccccc12 [17c, 2-(2-(1H-indol-3-yl)-N-methyl-2-oxoacetamido)ethyl o-tolylcarbamate] | > 50 |
| CN(CCOC(=O)Nc1cccc(Cl)c1)C(=O)C(=O)c1c[nH]c2ccccc12 [17d, 2-(2-(1H-indol-3-yl)-N-methyl-2-oxoacetamido)ethyl (3-chlorophenyl)carbamate] | > 50 |

Same assay, conditions: in vitro, triplicates; read-out: BChE: IC50 (μM) ± SEM

| SMILES | IC50 |
| --- | --- |
| CN(CC(=O)Nc1ccccc1F)C(=O)C(=O)c1c[nH]c2ccccc12 [8a, N-(2-((2-fluorophenyl)amino)-2-oxoethyl)-2-(1H-indol-3-yl)-N-methyl-2-oxoacetamide] | > 50 µM |
| COc1ccc(NC(=O)CN(C)C(=O)C(=O)c2c[nH]c3ccccc23)c(C)c1 [8b, 2-(1H-indol-3-yl)-N-(2-((4-methoxy-2-methylphenyl)amino)-2-oxoethyl)-N-methyl-2-oxoacetamide] | > 50 µM |
| Cc1cc(C)c(NC(=O)CN(C)C(=O)C(=O)c2c[nH]c3ccccc23)c(C)c1 [8c, 2-(1H-indol-3-yl)-N-(2-(mesitylamino)-2-oxoethyl)-N-methyl-2-oxoacetamide] | < 50 µM and 3.95 µM and 3.94 µM |
| Cc1ccccc1NC(=O)CN(C)C(=O)C(=O)c1c[nH]c2ccccc12 [8d, 2-(1H-indol-3-yl)-N-methyl-2-oxo-N-(2-oxo-2-(o-tolylamino)ethyl)acetamide] | < 50 µM and 19.6 µM |
| COc1ccccc1NC(=O)CNC(=O)C(=O)c1c[nH]c2ccccc12 [13a, 2-(1H-indol-3-yl)-N-(2-((2-methoxyphenyl)amino)-2-oxoethyl)-2-oxoacetamide] | > 50 µM |
| COc1ccc(NC(=O)CNC(=O)C(=O)c2c[nH]c3ccccc23)cc1 [13b, 2-(1H-indol-3-yl)-N-(2-((4-methoxyphenyl)amino)-2-oxoethyl)-2-oxoacetamide] | > 50 µM |
| Cc1ccc(NC(=O)CNC(=O)C(=O)c2c[nH]c3ccccc23)cc1C [13c, N-(2-((3,4-dimethylphenyl)amino)-2-oxoethyl)-2-(1H-indol-3-yl)-2-oxoacetamide] | > 50 µM |
| CCCCc1ccc(NC(=O)CNC(=O)C(=O)c2c[nH]c3ccccc23)cc1 [13d, N-(2-((4-butylphenyl)amino)-2-oxoethyl)-2-(1H-indol-3-yl)-2-oxoacetamide] | > 50 µM |
| Cc1cc(C)c(NC(=O)CNC(=O)C(=O)c2c[nH]c3ccccc23)c(C)c1 [13e, 2-(1H-indol-3-yl)-N-(2-(mesitylamino)-2-oxoethyl)-2-oxoacetamide] | > 50 µM |
| Cc1cc(C)cc(NC(=O)CNC(=O)C(=O)c2c[nH]c3ccccc23)c1 [13f, N-(2-((3,5-dimethylphenyl)amino)-2-oxoethyl)-2-(1H-indol-3-yl)-2-oxoacetamide] | > 50 µM |
| Cc1ccccc1NC(=O)CNC(=O)C(=O)c1c[nH]c2ccccc12 [13g, 2-(1H-indol-3-yl)-2-oxo-N-(2-oxo-2-(o-tolylamino)ethyl)acetamide] | > 50 µM |
| Cc1ccc(NC(=O)CNC(=O)C(=O)c2c[nH]c3ccccc23)cc1Cl [13h, N-(2-((3-chloro-4-methylphenyl)amino)-2-oxoethyl)-2-(1H-indol-3-yl)-2-oxoacetamide] | > 50 µM |
| COc1ccc(NC(=O)CNC(=O)C(=O)c2c[nH]c3ccccc23)c(OC)c1 [13i, N-(2-((2,4-dimethoxyphenyl)amino)-2-oxoethyl)-2-(1H-indol-3-yl)-2-oxoacetamide] | > 50 µM |
| COc1cccc(NC(=O)CNC(=O)C(=O)c2c[nH]c3ccccc23)c1 [13j, 2-(1H-indol-3-yl)-N-(2-((3-methoxyphenyl)amino)-2-oxoethyl)-2-oxoacetamide] | > 50 µM |
| O=C(CNC(=O)C(=O)c1c[nH]c2ccccc12)Nc1ccccc1F [13k, N-(2-((2-fluorophenyl)amino)-2-oxoethyl)-2-(1H-indol-3-yl)-2-oxoacetamide] | > 50 µM |

Molecular target: T1, BChE
Assay: not given
Parameters: method as in PMID 33759552
Settings: previous study; cited from earlier work

| SMILES | inhibition type |
| --- | --- |
| COc1cccc(NC(=O)CN(C)C(C)C(=O)c2c[nH]c3ccccc23)c1 (stereo not drawn) [compound 970180] | mixed-type |

Molecular target: T1, BChE
Assay: not given
Parameters: method as in PMID 33759552
Settings: in vitro; found in previous study; read-out: BChE IC50 of starting compound; cited from earlier work

| SMILES | IC50 [µM] |
| --- | --- |
| COc1cccc(NC(=O)CN(C)C(C)C(=O)c2c[nH]c3ccccc23)c1 (stereo not drawn) [compound 970180] | 4.24 ± 0.16 |
